One may read the half-life as the time in which the quantity being followed falls by half. A low value points to fast loss. The term inhibition denotes the relative decrease from the control value, in per cent.

The source of these data is article PMC8995034 (Science Translational Medicine, 2022).

In data set [1] the test system is SARS-CoV-2 fLUC. Description: microbe, parasite or virus in culture. As to conditions: for EC50: Severe acute respiratory syndrome coronavirus 2, NHBE, 24 h, read-out: EC50, inhibition of SARS-CoV-2 replication in NHBE cultures; for % Inhibition (Fig1F): duplicate values; for Relative Light Units (RLU) (FigS1C): duplicates. Format: cell-based.
Data set [2] in a line: in vitro. Particulars: human, % Cytotoxicity (Fig1E).
The subject of data set [3] is MERS-CoV. The data set can be described thus: microbe, parasite or virus in culture. Format: cell-based. As to conditions: Middle East respiratory syndrome-related coronavirus, Calu-3 2B4, read-out: EC50 against MERS-CoV.
Data set [4] is described as follows: in vivo. Particulars: BALB/c, mouse, po, 20 mg/kg.
Data set [5] concerns SARS-CoV-2 nLUC. The data set can be described thus: microbe, parasite or virus in culture. Particulars: for inhibition at 0.00152 µM: drug 0.00152 µM; for inhibition at 0.00457 µM: drug 0.00457 µM; for inhibition at 0.01372 µM: drug 0.01372 µM; for inhibition at 0.04115 µM: drug 0.04115 µM; for inhibition at 0.37037 µM: drug 0.37037 µM; for inhibition at 3.33333 µM: drug 3.33333 µM; for Relative Light Units (RLU) (FigS1A): replicate wells. Format: cell-based.

The conditions of data set [6]: African green monkeys; cited from earlier work.
For data set [7] the following is noted: in vivo; cited from earlier work.
The subject of data set [8] is alpha, beta, and gamma SARS-CoV-2 VOCs. As to conditions: cited from earlier work.
Data set [9] concerns SARS-CoV-2. The class given is cell-based.
The mark [10] stands for this setting: Severe acute respiratory syndrome coronavirus 2, read-out: % Inhibition (Fig1D).
Where [11] appears, read: Severe acute respiratory syndrome coronavirus 2, drug 10 µM, read-out: % Inhibition (Fig1D).
The mark [12] stands for this setting: Severe acute respiratory syndrome coronavirus 2, read-out: Average EC50 (nM) A549-hACE2.
The mark [13] stands for this setting: Severe acute respiratory syndrome coronavirus 2, read-out: average half-maximum effective concentration (EC50), SARS-CoV-2 nLUC replication.
[14] abbreviates: concentration 0.222222 (unit not given).
Setting [15] is: concentration 0.666667 (unit not given).
The mark [16] stands for this setting: concentration 2 (unit not given).

Values joined by “and” are separate entries in the source; they are usually repeats but may differ in a detail not shown here. Identical values can stand only once. Like-named read-outs stand apart in the source and are kept apart here.

Turning to `N#C[C@@]1(c2ccc3c(N)ncnn23)O[C@H](CO)[C@@H](O)[C@H]1O` [GS-441524, reference compound], the EC50 in [1] was 2450 nM; in [3], 2100 nM; in data set [5] (setting [12]), 3370 nM; in data set [5] (setting [13]) it was 3400 nM. For the same compound, the “% Inhibition (Fig1F)” value in data set [1] (concentration 0.205761 (unit not given)) is 16.6269% and 13.9332%; in [1] (concentration 0.617284 (unit not given)), 25.1934% and 32.3249%; in data set [1] (concentration 1.85185 (unit not given)), 47.2673% and 45.1609%; in [1] (concentration 5.55556 (unit not given)) it was 89.9387% and 91.061%; in data set [1] (concentration 16.6667 (unit not given)) it was 99.9354% and 99.9435%; in data set [1] (concentration 50 (unit not given)), 99.9909% and 99.9933%. Moreover, the cytotoxicity in data set [2] (drug 0.00152 µM) was determined as 4.91%; in [2] (drug 0.00457 µM), 3.11%; in [2] (drug 0.01372 µM), 6.91%; in data set [2] (drug 0.04115 µM) it was 2.96%; in data set [2] (drug 0.12346 µM), 5.66%; in data set [2] (drug 0.37037 µM), 7.63%. Moreover, the results for the cytotoxicity in data set [2] (drug 3.33333 µM) and in [2] (drug 10 µM) were 9.21% and 7.34%, respectively. The compound further gave a half-life in data set [4] of about 1 h. In data set [5] (setting [10]), the inhibition at 0.00152 µM is 5.76%. Further, the inhibition at 0.00457 µM in data set [5] (setting [10]) worked out at 7.88%. Further, the inhibition at 0.01372 µM in [5] (setting [10]) was 0.08%. In addition, the inhibition at 0.04115 µM in data set [5] (setting [10]) worked out at 5.14%. In data set [5] (setting [10]), the inhibition at 0.37037 µM was -4.48%. Further, the inhibition at 3.33333 µM in data set [5] (setting [10]) was found to be 42%. The inhibition at 10 µM in [5] (setting [11]) was found to be 99%.
Regarding `CC(C)C(=O)OCC1OC(C#N)(c2ccc3c(N)ncnn23)C(OC(=O)C(C)C)C1OC(=O)C(C)C` (centres unmarked) [GS-621763], the EC50 in data set [1] amounted to 125 nM; in data set [3], 740 nM; in data set [5] (setting [12]), 2800 nM; in [5] (setting [13]) it was 2800 nM. Also, the “% Inhibition (Fig1F)” value in data set [1] (setting [14]) is 65.5149% and 78.3611%; in data set [1] (setting [15]), 97.4321% and 98.0439%; in data set [1] (setting [16]), 99.8762% and 99.9108%. Besides, the “Relative Light Units (RLU) (FigS1C)” value in [1] (drug concentration 0.00823) was 7706513 RLU and 5857613 RLU; in [1] (drug concentration 0.024691) it was 7329653 RLU and 5548473 RLU; in [1] (drug concentration 0.074074) it was 5615903 RLU and 3756783 RLU; in data set [1] (drug concentration 0.222222) it was 2451403 RLU and 1538223 RLU; in data set [1] (drug concentration 0.666667), 182543 RLU and 139053 RLU; in data set [1] (drug concentration 2) it was 8803.33 RLU and 6343.33 RLU. For the same compound, the “intact ester in plasma” value in data set [6] and in [7] was “no or very minimal intact ester observed in plasma” throughout. For the same compound, the cytotoxicity was determined as 5.08% in [2] (drug 0.00152 µM); 2.88% in [2] (drug 0.00457 µM); 4.34% in data set [2] (drug 0.01372 µM); 5.67% in [2] (drug 0.04115 µM); 6.43% in [2] (drug 0.12346 µM); 7.02% in data set [2] (drug 0.37037 µM). Further, the cytotoxicity was -1.19% in [2] (drug 1.11111 µM), 1.11% in [2] (drug 3.33333 µM) and 4.64% in [2] (drug 10 µM). In addition, the “antiviral activity against alpha, beta, and gamma SARS-CoV-2 VOCs” value in data set [8] is given as “potently antiviral”. Moreover, in data set [5] (setting [10]), the inhibition at 0.00152 µM is -15.2%. Further, in data set [5] (setting [10]), the inhibition at 0.00457 µM is -13.7%. For the same compound, in data set [5] (setting [10]), the inhibition at 0.01372 µM is -12.3%. Also, the inhibition at 0.04115 µM in data set [5] (setting [10]) is -15.7%. In addition, the inhibition at 0.12346 µM in data set [5] (Severe acute respiratory syndrome coronavirus 2, drug 0.12346 µM, read-out: % Inhibition (Fig1D)) was -15.4%. The inhibition at 0.37037 µM in [5] (setting [10]) is -23%. The inhibition at 1.11111 µM in data set [5] (Severe acute respiratory syndrome coronavirus 2, drug 1.11111 µM, read-out: % Inhibition (Fig1D)) is -42%. Moreover, the inhibition at 3.33333 µM in data set [5] (setting [10]) was 94.8%. Also, the inhibition at 10 µM in [5] (setting [11]) came to 99.3%. Moreover, the “Relative Light Units (RLU) (FigS1A)” value was 1.49E+08 RLU and 1.35E+08 RLU and 1.13E+08 RLU in data set [5] (drug 0.004 µM); 1.45E+08 RLU and 1.37E+08 RLU and 1.12E+08 RLU in [5] (drug 0.04 µM); 1.47E+08 RLU and 1.37E+08 RLU and 1.32E+08 RLU in data set [5] (drug 0.12 µM); 1.64E+08 RLU and 1.46E+08 RLU and 1.36E+08 RLU in data set [5] (drug 0.37 µM); 1.69E+08 RLU and 1.76E+08 RLU and 1.62E+08 RLU in [5] (drug 1.1 µM); 6190000 RLU and 6040000 RLU and 1.36E+07 RLU in data set [5] (drug 3.3 µM). Moreover, the “Relative Light Units (RLU) (FigS1A)” value in data set [5] (drug 10 µM) was 708000 RLU and 801000 RLU and 866000 RLU. The entries for the “antiviral activity / infectious virus titers in HAE cell cultures” value in data set [9] and in data set [9] (listed as GS621763) were “confirmed the antiviral activity” and “reduces viral titers”, respectively.
In the case of `CC(C)C(=O)OC[C@H]1O[C@@H](n2ccc(NO)nc2=O)[C@H](O)[C@@H]1O` [MPV, molnupiravir, reference compound], where the note is “MPV 30 mg/kg or 100 mg/kg oral, BID”, the “NHC plasma exposures, dose proportionality” value was “dose proportional increases in NHC plasma exposures”.
Turning to `O=c1nc(NO)ccn1[C@@H]1O[C@H](CO)[C@@H](O)[C@H]1O` [NHC], the “Plasma NHC, FigS5” value (Group 1, time 12.5, individual mice, oral MPV) was 48.2 μM and 56.9 μM (2×) and 55.4 μM.
Regarding `CCC(CC)COC(=O)C(C)NP(=O)(OCC1OC(C#N)(c2ccc3c(N)ncnn23)C(O)C1O)Oc1ccccc1` (centres unmarked) [RDV (GS-5734)], the “% Inhibition (Fig1F)” value in data set [1] (concentration 0.024691 (unit not given)) was 24.385% and 40.4776%; in data set [1] (concentration 0.074074 (unit not given)), 79.3894% and 81.2356%; in data set [1] (setting [14]), 99.4779% and 99.6549%; in [1] (setting [15]) it was 99.9727% and 99.9783%; in data set [1] (setting [16]), 99.9953% and 99.9938%.
For `CCC(CC)COC(=O)[C@H](C)N[P@](=O)(OC[C@H]1O[C@@](C#N)(c2ccc3c(N)ncnn23)[C@H](O)[C@@H]1O)Oc1ccccc1` [RDV, remdesivir, reference compound], the EC50 in [1] was found to be 37.1 nM; in data set [3], 160 nM; in data set [5] (setting [12]), 294 nM; in [5] (setting [13]), 290 nM.
